The values below come from patent publication US10654896B2, “FoxP3-binding peptides and uses thereof” (FUNDACIÓN PARA LA INVESTIGACIÓN MÉDICA APLICADA, priority 2016, dated 2020).

Where no end group is shown, it is not given here.

One data set deals with Hepa-129 cells. Description: Tumor rejection experiment, Hepa-129 cells s.c. The class given is in vivo, C3H/HeN mice. Particulars: peptide 50 μg/mice/day, days 10 to 20, combined with anti-PD1 antibodies. Here is the method:
For tumor rejection experiments, Hepa-129 cells (10^6 cells/mouse), were injected subcutaneously (sc) in C3H/HeN mice (n=6). Ten days later, when the tumor reached 5 mm in diameter, mice were randomly divided into different experimental groups. A group of mice were treated i.p. with anti-PD1 antibodies (BE0146, BioXcell) (50 μg/mouse). Antibody administration was repeated one week after this first administration. A group of mice treated with anti-PD1 also received the cyclic peptide SEQ ID NO: 50 from days 10 to 20 (50 μg/mice/day). Tumor size, presented as the average of two perpendicular diameters (millimeters), was measured at regular intervals. Mice were sacrificed when the mean tumor diameter was greater than 20 mm. Mice were housed in appropriated animal care facilities during the experimental period and handled following the international guidelines required for experimentation with animals. The experiments were approved by institutional ethical committee.

For a further data set, the target named is T1, human FOXP3 (FOXP3-6His) (Homo sapiens, UniProt Q9BZS1).
T1 construct: 6xHis (C); made in house; host or cells: E. coli BL21 (DE3)
T1 sequence (Q9BZS1 1-431): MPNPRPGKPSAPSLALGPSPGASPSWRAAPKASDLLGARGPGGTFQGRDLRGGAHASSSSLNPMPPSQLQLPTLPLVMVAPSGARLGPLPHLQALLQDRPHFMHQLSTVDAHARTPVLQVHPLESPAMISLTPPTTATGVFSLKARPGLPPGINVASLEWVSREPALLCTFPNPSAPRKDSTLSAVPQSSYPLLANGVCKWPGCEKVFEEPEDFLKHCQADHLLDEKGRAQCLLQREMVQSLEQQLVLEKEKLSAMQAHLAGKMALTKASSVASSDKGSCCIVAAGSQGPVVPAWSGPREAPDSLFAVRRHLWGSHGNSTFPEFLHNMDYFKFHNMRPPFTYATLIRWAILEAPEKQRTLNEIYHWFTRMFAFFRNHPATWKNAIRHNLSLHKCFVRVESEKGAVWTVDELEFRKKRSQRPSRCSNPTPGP
Description: Peptide binding to FOXP3 by surface plasmon resonance (SPR). In outline: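 C-terminally 6His-tagged human FOXP3, expressed in E. coli BL21(DE3) and Ni-affinity purified, was amine-coupled to a GLM chip (ProteOn XPR36). Peptides at 1–20 μM injected in triplicate in PBS, 0.005% Tween 20, pH 7.4, at 30 μl/min, with interspot reference. Binding given as ratio to reference peptide p60.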

The nature of data set [1]: Mouse liver microsomal stability. In kind it is in vitro ADME. Particulars: mouse liver microsomes. The protocol:
(§1) The data collected were analyzed to calculate a half-life (t1/2, min) for tested peptides at a final concentration of 1 μM. Briefly, 5 μL of stock solution of tested peptide (10 mM) were diluted in 495 μL of 1:1 Methanol/Water (final concentration of 100 μM, 50% MeOH). Then, 50 μL of this intermediate solution were diluted in 450 μL of 100 mM potassium phosphate buffer to a concentration of 10 μM (working solution, 5% MeOH). The NADPH regenerating system contains β-Nicotinamide adenine dinucleotide phosphate (Sigma, Cat. # N0505), Isocitric acid (Sigma, Cat. #11252) and Isocitric dehydrogenase (Sigma, Cat. #12002) at a final concentration of 1 unit/mL at incubation.
(§2) Human liver microsomes were obtained from BD Gentest (Cat. #452117) and mouse liver microsomes from Xenotech (Cat. # M1000), to a final concentration of 0.7 mg protein/mL. A volume of 10 μL of peptide solution and 80 μL of microsome solution were added to a 96-well plate and incubated for 10 min at 37° C. The reaction was started by the addition of 10 μL of NADPH regenerating system and stopped by the addition of 300 μL of stop solution (ACN at 4° C., including 100 ng/mL Tolbutamide and 100 ng/mL of Labetalol as internal standard) at different incubation times (0, 5, 10, 20, 30 and 60 min). Concentrations of test compound were quantified by LC-MS/MS methodologies (Shimadzu LC 20-AD/API4000) using peak area ratio of analyte/internal standard and the percent loss of parent compound was calculated under each time point to determine the half-life.
A general note: Liver microsomes are vesicles of endoplasmic reticulum, rich in cytochrome P450 enzymes.

The subject of the next data set is CT26 tumor cells. Description: Anti-tumor vaccination experiment (AH1 in IFA), CT26 challenge. In kind it is in vivo, BALB/c. The protocol: For anti-tumor vaccination experiments, BALB/c animals immunized with 50 nanomol/mice of peptide AH1 emulsified in incomplete Freund adjuvant (IFA) (Casares et al., 2010, supra), were treated intraperitoneally with 10 nanomol/mice of the indicated Treg inhibitory peptide SEQ ID NO: 51 of the invention or with saline daily during 10 days. At day 10, mice were injected s.c. with 10^6 CT26 tumor cells. Tumor size was monitored twice a week with a calliper and it was expressed according to the formula V=(length×width2)/2. Mice were sacrificed when tumor size reached a volume greater than 4 cm^3.

Data set [2] in a line: Human liver microsomal stability. The class given is in vitro ADME. Particulars: human liver microsomes. The protocol:
as §1, §2

Setting [3] is: 20 min, read-out: % Remaining after 20 min.
The mark [4] stands for this setting: 60 min, read-out: % Remaining after 60 min.

Turning to “RAFQAFRKMWPFFAM [SEQ ID NO: 50] (cyclo(RAFQAFRKMWPFFAM); also: R1 and R2 form a linker birradical which is -C(=O)-) [head-to-tail cyclic peptide]”, the antitumor activity result in the data set with Hepa-129 cells was “remarkable antitumor activity”. In addition, the “increase in the binding to FoxP3 with respect to p60 (SEQ ID NO: 1)” value in the data set with human FOXP3 (FOXP3-6His) is on record as “more than 2100%”.

As usually defined, the share remaining is the share of the starting amount still present when the sample was taken. For “RDFQSFRKMWPFFAM [SEQ ID NO: 1, RDFQSFRKMWPFFAM, reference compound]”, the amount remaining at 20 min, 1 μM in data set [1] (setting [3]) and in data set [2] (setting [3]) was 0% each time. The share remaining at 1 h, 1 μM in data set [1] (setting [4]) and in data set [2] (setting [4]) was 0% throughout. The half-life in data set [1] (peptide 1 μM) was less than 2.5 min; in data set [2] (peptide 1 μM, read-out: t1/2), less than 2.5 min. For the same sequence, the “effect on growth of CT26 colon cancer tumor” value with CT26 tumor cells (10 nanomol/mice i.p. daily during 10 days after AH1/IFA, day 30 after injection of CT26) is given as “not efficient”. In addition, the tumor volume entry with CT26 tumor cells (day 30 after injection of CT26 tumor cells) was “about 2000 mm^3”.
